From the supplement of paper PMC10307832

Tests used:
Experiment in all cases: relative viability (nuclei count vs DMSO), 5 days (fraction); higher = more cells survive
[1] = compound: CC1=NN=C(O1)C2=NN=C(C=C2)N3CCC(CC3)OC4=C(C=CC(=C4)F)Cl + O=C(c1cc(Cc2n[nH]c(=O)c3ccccc23)ccc1F)N1CCN(C(=O)C2CC2)CC1 [Olaparib] (partner 8 µM)
How it was run: (§1)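 A single step with final 0.05% Triton X-100, 1% formaldehyde and 1 ug/ml Hoechst fixed the cells and stained nuclei 5 days after treatment. Lung cancer cell lines in 1536-well plates had been treated by pin tool the day after seeding with one drug alone or a fixed anchor-drug dose plus five library-drug doses (not always all listed) in √10 steps, and nuclei were counted on 4× images. Relative viability is the ratio of nuclei in treated wells to nuclei in vehicle wells, taken as the median of duplicate plates.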

[2] = compound: CC(C)C[C@@H](C(=O)N[C@H](C(=O)OC1CCCC1)c1ccccc1)[C@H](O)C(=O)NO [Tosedostat] + CS(=O)(=O)CCNCc1ccc(-c2ccc3ncnc(Nc4ccc(OCc5cccc(F)c5)c(Cl)c4)c3c2)o1 [Lapatinib] (partner 2 µM)
How it was run: as §1

[3] = compound: CC1=NN=C(O1)C2=NN=C(C=C2)N3CCC(CC3)OC4=C(C=CC(=C4)F)Cl + Cc1cc(Nc2cc(N3CCN(C)CC3)nc(Sc3ccc(NC(=O)C4CC4)cc3)n2)n[nH]1 [Tozasertib] (partner 0.1 µM)
How it was run: as §1

[4] = compound: CC1=NN=C(O1)C2=NN=C(C=C2)N3CCC(CC3)OC4=C(C=CC(=C4)F)Cl + Cc1nc(NC(=O)N2CCC[C@H]2C(N)=O)sc1-c1ccnc(C(C)(C)C(F)(F)F)c1 [Alpelisib] (partner 2 µM)
How it was run: as §1

Row | Cell Line | relative viability ([1]; first compound 0.253 µM) | relative viability ([1]; first compound 0.8 µM) | relative viability ([1]; first compound 2.53 µM) | relative viability ([1]; first compound 8 µM) | relative viability ([2]; first compound 0.02 µM) | relative viability ([2]; first compound 0.06325 µM) | relative viability ([2]; first compound 0.2 µM) | relative viability ([2]; first compound 0.6325 µM) | relative viability ([2]; first compound 2 µM) | relative viability ([3]; first compound 0.253 µM) | relative viability ([3]; first compound 0.8 µM) | relative viability ([3]; first compound 2.53 µM) | relative viability ([3]; first compound 8 µM) | relative viability ([4]; first compound 0.253 µM) | relative viability ([4]; first compound 0.8 µM) | relative viability ([4]; first compound 2.53 µM) | relative viability ([4]; first compound 8 µM)
1 | NCI-H1395 | 0.482 | 0.539 | 0.445 | 0.448 | 1.1 | 0.944 | 0.877 | 0.862 | 0.674 | 0.69 | 0.581 | 0.72 | 0.683 | 0.962 | 0.897 | 0.995 | 1
2 | NCI-H1437 | 0.416 | 0.516 | 0.449 | 0.403 | 0.749 | 0.809 | 0.744 | 0.727 | 0.661 | 0.256 | 0.204 | 0.228 | 0.175 | 0.696 | 0.63 | 0.804 | 0.591
3 | NCI-H1651 | 0.165 | 0.162 | 0.17 | 0.162 | 0.883 | 0.81 | 0.77 | 0.816 | 0.697 | 0.58 | 0.66 | 0.567 | 0.571 | 0.821 | 0.78 | 0.777 | 0.75
4 | NCI-H1666 | 0.692 | 0.728 | 0.655 | 0.664 | 0.841 | 0.853 | 0.669 | 0.735 | 0.618 | 0.43 | 0.496 | 0.458 | 0.388 | 0.672 | 0.738 | 0.846 | 0.792
5 | NCI-H1734 | 0.544 | 0.509 | 0.57 | 0.472 | 1.23 | 1.11 | 0.997 | 1.01 | 0.763 | 0.262 | 0.287 | 0.216 | 0.247 | 0.655 | 0.635 | 0.672 | 0.556
6 | NCI-H1755 | 0.65 | 0.616 | 0.657 | 0.562 | 1.1 | 1.08 | 1.09 | 1.1 | 1.13 | 0.425 | 0.45 | 0.467 | 0.405 | 0.713 | 0.697 | 0.709 | 0.671
7 | NCI-H1793 | 0.761 | 0.74 | 0.762 | 0.738 | 0.579 | 0.73 | 0.874 | 0.82 | 0.618 | 0.368 | 0.302 | 0.219 | 0.195 | 0.716 | 0.773 | 0.717 | 0.559
8 | NCI-H1915 | 0.202 | 0.17 | 0.184 | 0.162 | 1.08 | 0.938 | 0.947 | 0.953 | 0.956 | 0.265 | 0.222 | 0.222 | 0.192 | 0.506 | 0.391 | 0.437 | 0.31
